Assay results taken from ChEMBL document CHEMBL1142463 (Bioorg Med Chem Lett, 2008).

Legend:
Phospholipase A2 group V [1] = target: T1, Phospholipase A2 group V (Mus musculus, UniProt P97391); assay: Inhibition of mouse sPLA2 group 5
T1 sequence (P97391 whole entry): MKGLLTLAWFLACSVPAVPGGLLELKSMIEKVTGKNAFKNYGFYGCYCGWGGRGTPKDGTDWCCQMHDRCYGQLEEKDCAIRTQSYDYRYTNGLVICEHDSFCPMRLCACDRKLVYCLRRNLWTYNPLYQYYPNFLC

[2] = target: T2, Phospholipase A2, membrane associated (Mus musculus, UniProt P31482); assay: Inhibition of mouse sPLA2 group 2A
T2 sequence (P31482 whole entry): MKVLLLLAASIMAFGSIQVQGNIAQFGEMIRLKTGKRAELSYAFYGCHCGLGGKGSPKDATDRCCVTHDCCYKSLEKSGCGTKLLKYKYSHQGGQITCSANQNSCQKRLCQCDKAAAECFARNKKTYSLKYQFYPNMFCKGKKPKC

[3] = target: T3, Group 10 secretory phospholipase A2 (Mus musculus, UniProt Q9QXX3); assay: Inhibition of mouse sPLA2 group 10
T3 sequence (Q9QXX3 whole entry): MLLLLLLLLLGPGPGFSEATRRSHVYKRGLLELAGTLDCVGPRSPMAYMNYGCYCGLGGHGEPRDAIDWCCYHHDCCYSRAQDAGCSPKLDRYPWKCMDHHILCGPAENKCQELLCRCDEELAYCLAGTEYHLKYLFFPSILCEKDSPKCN

Phospholipase A2 group V [4] = target: T4, Phospholipase A2 group V (Homo sapiens, UniProt P39877); assay: Inhibition of human sPLA2 group 5
T4 sequence (P39877 whole entry): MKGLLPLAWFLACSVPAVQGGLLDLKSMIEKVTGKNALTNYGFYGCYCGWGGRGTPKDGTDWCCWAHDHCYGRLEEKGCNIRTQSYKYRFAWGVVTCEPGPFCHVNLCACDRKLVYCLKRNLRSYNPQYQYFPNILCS

[5] = target: T5, Phospholipase A2, membrane associated (Homo sapiens, UniProt P14555); assay: Inhibition of human sPLA2 group 2A
T5 sequence (P14555 whole entry): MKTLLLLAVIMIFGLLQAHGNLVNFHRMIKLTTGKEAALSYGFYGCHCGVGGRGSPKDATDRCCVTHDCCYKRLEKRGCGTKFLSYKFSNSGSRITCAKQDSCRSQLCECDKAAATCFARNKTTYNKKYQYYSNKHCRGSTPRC

[6] = target: T6, Group 10 secretory phospholipase A2 (Homo sapiens, UniProt O15496); assay: Inhibition of human sPLA2 group 10
T6 sequence (O15496 whole entry): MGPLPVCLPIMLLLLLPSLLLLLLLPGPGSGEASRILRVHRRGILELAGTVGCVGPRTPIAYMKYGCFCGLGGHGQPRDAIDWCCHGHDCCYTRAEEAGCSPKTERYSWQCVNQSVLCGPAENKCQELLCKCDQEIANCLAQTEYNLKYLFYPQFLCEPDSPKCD

[7] = target: T7, Phospholipase A2, membrane associated (Rattus norvegicus, UniProt P14423); assay: Inhibition of rat sPLA2 group 2A
T7 sequence (P14423 whole entry): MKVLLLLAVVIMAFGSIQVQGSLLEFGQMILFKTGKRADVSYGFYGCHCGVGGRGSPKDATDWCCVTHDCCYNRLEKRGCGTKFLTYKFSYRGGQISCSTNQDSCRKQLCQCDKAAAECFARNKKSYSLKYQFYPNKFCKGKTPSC

[8] = target: Phospholipase A2, membrane associated (Oryctolagus cuniculus, UniProt P14422); assay: Inhibition of rabbit sPLA2 group 2A
Chain of Phospholipase A2, membrane associated (Oryctolagus cuniculus, UniProt P14422) (P14422 whole entry): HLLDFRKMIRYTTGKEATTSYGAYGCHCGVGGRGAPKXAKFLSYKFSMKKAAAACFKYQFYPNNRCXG

Structure (SMILES) | IC50 (Phospholipase A2 group V [1]) [nM] | IC50 [2] [nM] | IC50 [3] [nM] | IC50 (Phospholipase A2 group V [4]) [nM] | IC50 [5] [nM] | IC50 [6] [nM] | IC50 [7] [nM] | IC50 [8] [nM]
CCCCCCCCCCCC(=O)c1c(O)c(C(=O)CCCCCCCCCCC)c(O)c(C2CC(c3ccc(O)cc3)Oc3cc(O)ccc32)c1O (stereo not drawn) | 520 | 30 | > 1600 |  |  |  |  | 
CC(=O)c1c(O)c(C)c(O)c(C(C)=O)c1O | > 1600 | > 1600 | > 1600 | > 1600 | > 1600 | > 1600 |  | 
CCCCCCCCCCCCc1c(O)cc(O)c(C(=O)CCCCCCCCCCC)c1O | > 1600 | > 1600 | > 1600 | > 1600 | > 1600 | > 1600 |  | 
CCCCCCCCCCCCc1c(O)c(C(C)=O)c(O)c(C(C)=O)c1O | > 1600 | > 1600 | > 1600 | > 1600 | > 1600 | > 1600 |  | 
CCCCCCCCCCCC(=O)c1cc(C)cc(C(=O)CCCCCCCCCCC)c1O | > 1600 | > 1600 | > 1600 | > 1600 | > 1600 | > 1600 |  | 
CCCCCCCCCCCC(=O)c1c(O)c(C)c(O)c(C(C)=O)c1O | > 1600 | > 1600 | > 1600 | > 1600 | > 1600 | > 1600 |  | 
CCCCCCCCCCCC(=O)c1c(O)c(C)c(O)c(C(=O)CCCCCCCCCCC)c1O | 1600 | 60 | > 1600 | 530 | 690 | > 1600 | 80 | 
CCCCCCCCCCCC(=O)c1cc(C(=O)CCCCCCCCCCC)c(O)cc1O | > 1600 | > 1600 | > 1600 | > 1600 | > 1600 | > 1600 |  | 
Oc1ccc(C2CCc3ccc(O)cc3O2)cc1 (stereo not drawn) |  | > 3300 |  |  | > 3300 |  | > 3300 | 
Cc1c(O)c(C(=O)Cc2ccccc2)c(O)c(C(=O)Cc2ccccc2)c1O | > 1600 | > 1600 | > 1600 | > 1600 | > 1600 | > 1600 |  | 
CCCCCCCCCCCC(=O)c1c(O)cc(O)c(C(=O)CCCCCCCCCCC)c1O [DIDODECANOYLPHLOROGLUCINOL] | 1600 | 110 | > 1600 | 1600 | 1600 | > 1600 | 90 | 10
